Reference: US20260151383A1, “HETEROCYCLIC COMPOUNDS AND USES THEREOF” (KayoThera Inc., priority 2022, published 2026)

Columns and labels:
Type in all cases: biochemical
Settings in all cases: recombinant enzyme, 20° C., activity level classes
hALDH1a2 = target: T1, hALDH1a2 (Homo sapiens, UniProt O94788); assay: Aldh1a2 enzyme inhibition assay (resorufin fluorescence), human enzyme
T1 construct: made in house; host or cells: E. coli BL21-DE3
T1 sequence (O94788 1-518): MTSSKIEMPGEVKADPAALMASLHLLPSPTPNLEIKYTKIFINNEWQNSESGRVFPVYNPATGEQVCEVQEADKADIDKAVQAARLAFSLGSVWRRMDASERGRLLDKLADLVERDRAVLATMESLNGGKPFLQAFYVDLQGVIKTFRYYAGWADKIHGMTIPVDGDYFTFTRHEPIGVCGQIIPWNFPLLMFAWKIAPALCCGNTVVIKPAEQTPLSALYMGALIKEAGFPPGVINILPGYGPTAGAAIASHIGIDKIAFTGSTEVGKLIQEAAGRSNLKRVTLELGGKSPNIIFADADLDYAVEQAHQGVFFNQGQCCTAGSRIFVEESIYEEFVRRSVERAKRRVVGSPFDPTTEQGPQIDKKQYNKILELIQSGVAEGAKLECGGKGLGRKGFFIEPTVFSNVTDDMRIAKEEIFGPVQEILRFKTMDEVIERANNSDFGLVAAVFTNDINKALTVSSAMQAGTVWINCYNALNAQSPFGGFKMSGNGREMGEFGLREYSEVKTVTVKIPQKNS
Source text: (§1) Recombinant enzyme and inhibitor added immediately before assay. Reaction rate measured by resorufln fluorescence.

mALDH1a3 = target: T2, mALDH1a3 (Mus musculus, UniProt Q9JHW9); assay: Aldh1a3 enzyme inhibition assay (resorufin fluorescence), mouse enzyme
T2 construct: made in house; host or cells: E. coli BL21-DE3
T2 sequence (Q9JHW9 1-512): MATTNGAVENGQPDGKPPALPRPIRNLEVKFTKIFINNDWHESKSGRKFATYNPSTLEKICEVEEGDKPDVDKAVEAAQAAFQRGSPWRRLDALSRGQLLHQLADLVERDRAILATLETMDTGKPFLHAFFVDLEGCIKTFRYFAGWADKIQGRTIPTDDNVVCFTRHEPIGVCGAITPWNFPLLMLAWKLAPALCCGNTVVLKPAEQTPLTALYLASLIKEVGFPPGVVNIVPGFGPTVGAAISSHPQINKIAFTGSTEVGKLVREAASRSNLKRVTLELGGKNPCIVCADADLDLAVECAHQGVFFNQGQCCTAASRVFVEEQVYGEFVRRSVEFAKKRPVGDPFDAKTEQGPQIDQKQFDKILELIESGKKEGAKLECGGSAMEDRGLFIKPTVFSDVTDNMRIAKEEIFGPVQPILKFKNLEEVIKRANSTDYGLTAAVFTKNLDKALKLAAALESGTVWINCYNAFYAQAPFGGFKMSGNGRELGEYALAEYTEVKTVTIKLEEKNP
Source text: Recombinant enzyme and inhibitor added immediately before assay. Reaction rate measured by resorufin fluorescence.

mALDH1a2 = target: T3, mALDH1a2 (Mus musculus, UniProt Q62148); assay: Aldh1a2 enzyme inhibition assay (resorufin fluorescence), mouse enzyme
T3 construct: made in house; host or cells: E. coli BL21-DE3
T3 sequence (Q62148 1-518): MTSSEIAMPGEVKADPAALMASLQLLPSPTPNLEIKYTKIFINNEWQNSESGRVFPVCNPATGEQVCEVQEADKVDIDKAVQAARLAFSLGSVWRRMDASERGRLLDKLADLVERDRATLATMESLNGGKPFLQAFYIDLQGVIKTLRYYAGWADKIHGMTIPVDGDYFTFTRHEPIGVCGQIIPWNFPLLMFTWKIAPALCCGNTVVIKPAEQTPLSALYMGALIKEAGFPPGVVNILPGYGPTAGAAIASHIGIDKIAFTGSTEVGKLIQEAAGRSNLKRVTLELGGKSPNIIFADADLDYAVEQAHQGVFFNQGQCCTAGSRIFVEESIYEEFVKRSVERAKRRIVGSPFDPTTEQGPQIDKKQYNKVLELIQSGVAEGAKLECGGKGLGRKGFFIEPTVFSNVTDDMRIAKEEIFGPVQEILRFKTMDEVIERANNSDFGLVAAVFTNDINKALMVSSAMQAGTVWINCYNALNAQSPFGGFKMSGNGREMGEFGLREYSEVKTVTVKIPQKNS
Source text: as §1

hALDH1a3 = target: T4, hALDH1a3 (Homo sapiens, UniProt P47895); assay: Aldh1a3 enzyme inhibition assay (resorufin fluorescence), human enzyme
T4 construct: made in house; host or cells: E. coli BL21-DE3
T4 sequence (P47895 1-512): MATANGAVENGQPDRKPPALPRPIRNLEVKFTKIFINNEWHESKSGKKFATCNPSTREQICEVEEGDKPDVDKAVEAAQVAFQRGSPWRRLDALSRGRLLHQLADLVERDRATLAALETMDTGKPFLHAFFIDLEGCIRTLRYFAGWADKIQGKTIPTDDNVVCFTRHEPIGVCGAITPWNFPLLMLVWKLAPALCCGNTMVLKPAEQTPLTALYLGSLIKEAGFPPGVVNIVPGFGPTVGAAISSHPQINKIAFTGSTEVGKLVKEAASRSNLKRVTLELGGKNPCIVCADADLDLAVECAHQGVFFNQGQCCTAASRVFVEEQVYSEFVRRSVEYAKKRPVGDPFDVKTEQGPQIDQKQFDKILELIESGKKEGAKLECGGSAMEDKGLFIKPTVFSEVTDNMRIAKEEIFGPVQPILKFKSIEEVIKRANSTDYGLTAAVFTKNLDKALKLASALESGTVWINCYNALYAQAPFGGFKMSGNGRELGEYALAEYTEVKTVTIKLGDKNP

| Structure (SMILES) | IC50 (hALDH1a2) | mAldh1a3 IC50 (mALDH1a3) | IC50 (mALDH1a2) | IC50 (hALDH1a3) | hAldh1a3 IC50 (hALDH1a3) | IC50 (mALDH1a3) |
| --- | --- | --- | --- | --- | --- | --- |
| O=C1CCc2cc(NC(=O)c3ccncc3-c3ccccc3F)cc(Cl)c2N1 [Compound 26] | 100 to 250 nM | No activity | 100 to 250 nM | 1000 to 5000 nM | – | – |
| Cc1cccc(-c2cnccc2C(=O)Nc2cc(C)c3c(c2)CCC(=O)N3)c1 [Compound 11, N-(8-methyl-2-oxo-1,2,3,4-tetrahydroquinolin-6-yl)-3-(m-tolyl)isonicotinamide] | 1000 to 5000 nM | No activity | 1000 to 5000 nM | – | No activity | – |
| Cc1cc(NC(=O)c2ccncc2CC(F)(F)F)cc2c1NC(=O)CS2 [Compound 7] | 250 to 1000 nM | – | 250 to 1000 nM | 100 to 250 nM | – | 100 to 250 nM |
